Data: patent US7109354B2, “Thiophene amidines, compositions thereof, and methods of treating complement-mediated diseases and conditions” (3-Dimensional Pharmaceuticals, Inc., priority 2002, dated 2006)
Several values for one entry are separate records, joined by “and”; a condition that tells them apart may be missing. Equal entries are not always repeated. Structures can show the parent of a compound that is named as a salt.

Target: T1, Activated human C1s (Homo sapiens, UniProt P09871)
T1 construct: purchased Calbiochem (La Jolla, Calif.)
T1 sequence (P09871 438-688 limits assumed): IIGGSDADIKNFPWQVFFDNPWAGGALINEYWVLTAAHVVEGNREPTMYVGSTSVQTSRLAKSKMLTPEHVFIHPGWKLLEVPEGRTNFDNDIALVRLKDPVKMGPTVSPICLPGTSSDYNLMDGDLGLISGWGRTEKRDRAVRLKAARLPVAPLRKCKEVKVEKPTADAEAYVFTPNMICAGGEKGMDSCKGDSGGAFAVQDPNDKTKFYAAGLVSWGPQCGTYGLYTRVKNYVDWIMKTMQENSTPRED
T1 sequence (P09871 16-437 partner limits assumed): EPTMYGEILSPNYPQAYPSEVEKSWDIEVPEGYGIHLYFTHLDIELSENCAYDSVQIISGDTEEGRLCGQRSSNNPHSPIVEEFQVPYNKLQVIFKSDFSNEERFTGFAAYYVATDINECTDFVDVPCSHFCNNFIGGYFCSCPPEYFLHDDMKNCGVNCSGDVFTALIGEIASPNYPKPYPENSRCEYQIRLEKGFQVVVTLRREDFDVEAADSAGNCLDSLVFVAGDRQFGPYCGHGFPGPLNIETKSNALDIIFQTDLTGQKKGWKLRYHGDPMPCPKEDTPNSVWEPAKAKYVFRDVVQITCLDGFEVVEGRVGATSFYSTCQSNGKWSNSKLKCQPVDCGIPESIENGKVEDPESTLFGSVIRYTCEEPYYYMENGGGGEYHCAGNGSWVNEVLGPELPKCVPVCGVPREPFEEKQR
Assay: In vitro inhibition of C1s (Ki determination, C1s-catalyzed hydrolysis of Z-Gly-Arg-S-Bzl, DTNB readout)
Type: biochemical
Details: substrate Z-Gly-Arg-S-Bzl 45 μM, DTNB 200 μM, C1s 2.3 nM, pH 7.5, 37° C., absorbance at 405 nm
Experimental: Reagents: All buffer salts were obtained from Sigma Chemical Company (St. Louis, Mo.), and were of the highest purity available. DTNB was purchased from Pierce (Rockford, Ill.). Z-Gly-Arg-S-Bzl was purchased from Enzyme Systems Products (Livermore, Calif.). Activated human C1s was purchased from Calbiochem (La Jolla, Calif.).
Test compounds are prepared as a 10 μM solution in DMSO. Dilutions are prepared in DMSO yielding 7 final concentrations encompassing a 700-fold concentration range.
Reactions were initiated by the addition of a 10 μL aliquot of the enzyme, and the absorbance increase at 405 nm is continuously recorded for 15 minutes in a Molecular Devices plate reader. Final DMSO concentration was 4.3%. […] The ratio of the velocity (rate of change in absorbance as a function of time) for a sample containing no test compound is divided by the velocity of a sample containing test compound, and is plotted as a function of test compound concentration. The data are fit to a linear regression, and the value of the slope of the line calculated. The inverse of the slope is the experimentally determined Ki value.

Structure (SMILES) | Ki
CSc1sc(C(=N)N)cc1S(=O)(=O)c1cccc(-c2cc(-c3ccccc3)ccc2O)c1 [Example 1, 4-(4′-Hydroxy-[1,1′;3′,1′]terphenyl-3′-sulfonyl)-5-methylsulfanyl-thiophene-2-carboxamidine trifluoroacetate] | 6 to 23 nM
CSc1sc(C(=N)N)cc1S(=O)(=O)c1cccc(-c2c(C)cccc2C(=O)O)c1 [Example 4, 3′-(5-Carbamimidoyl-2-methylsulfanyl-thiophene-3-sulfonyl)-6-methyl-biphenyl-2-carboxylic acid trifluoroacetate] | 6 to 23 nM
CSc1sc(C(=N)N)cc1S(=O)(=O)c1cccc(-c2c(C)cccc2CO)c1 [Example 5, 4-(6′-Hydroxymethyl-2′-methyl-biphenyl-3-sulfonyl)-5-methylsulfanyl-thiophene-2-carboxamidine] | 6 to 23 nM
CSc1sc(C(=N)N)cc1S(=O)(=O)c1cccc(-c2cc(C=O)ccc2C)c1 [Example 8, 4-(5′-Formyl-2′-methyl-biphenyl-3-sulfonyl)-5-methylsulfanyl-thiophene-2-carboxamidine trifluoroacetate] | 6 to 23 nM
C=CCOc1cc(Br)cc(S(=O)(=O)c2cc(C(=N)N)sc2SC)c1 [Example 12, 4-(3-Allyloxy-5-bromo-benzenesulfonyl)-5-methylsulfanyl-thiophene-2-carboxamidine hydrochloride] | 6 to 23 nM
COc1cc(Br)cc(S(=O)(=O)c2cc(C(=N)N)sc2SC)c1 [Example 13, 4-(3-Bromo-5-methoxy-benzenesulfonyl)-5-methylsulfanyl-thiophene-2-carboxamidine hydrochloride] | 6 to 23 nM
COc1cc(-c2ccccc2)cc(S(=O)(=O)c2cc(C(=N)N)sc2SC)c1 [Example 15, 4-(5-Methoxy-biphenyl-3-sulfonyl)-5-methylsulfanyl-thiophene-2-carboxamidine hydrochloride] | 6 to 23 nM
C=CCOc1cc(-c2ccccc2)cc(S(=O)(=O)c2cc(C(=N)N)sc2SC)c1 [Example 16, 4-(5-Allyloxy-biphenyl-3-sulfonyl)-5-methylsulfanyl-thiophene-2-carboxamidine] | 6 to 23 nM
CSc1sc(C(=N)N)cc1S(=O)(=O)c1cc(OCc2ccccc2)cc(-c2ccccc2)c1 [Example 17, 4-(5-Benzyloxy-biphenyl-3-sulfonyl)-5-methylsulfanyl-thiophene-2-carboxamidine hydrochloride] | 6 to 23 nM
CSc1sc(C(=N)N)cc1S(=O)(=O)c1cc(O)cc(-c2ccccc2Cl)c1 [Example 18, 4-(2′-Chloro-5-hydroxy-biphenyl-3-sulfonyl)-5-methylsulfanyl-thiophene-2-carboxamidine trifluoroacetate] | 6 to 23 nM
COc1cc(-c2ccccc2Cl)cc(S(=O)(=O)c2cc(C(=N)N)sc2SC)c1 [Example 19, 4-(2′-Chloro-5-methoxy-biphenyl-3-sulfonyl)-5-methylsulfanyl-thiophene-2-carboxamidine trifluoroacetate] | 6 to 23 nM
N=C(N)c1cc(S(=O)(=O)c2cccc(-c3cccc(C=O)c3)c2)c(Br)s1 [Example 20, 5-Bromo-4-(3′-formyl-biphenyl-3-sulfonyl)-thiophene-2-carboxamidine trifluoroacetate] | 6 to 23 nM
CSc1sc(C(=N)N)cc1S(=O)(=O)c1cccc(-c2ccc(O)c(C=O)c2)c1 [Example 26, 4-(3′-Formyl-4′-hydroxy-biphenyl-3-sulfonyl)-5-methylsulfanyl-thiophene-2-carboxamidine trifluoroacetate] | 6 to 23 nM
CSc1sc(C(=N)N)cc1S(=O)(=O)c1cccc(-c2cccc(C(O)C(F)(F)F)c2)c1 (stereo not shown) [Example 28, 5-Methylsulfanyl-4-[3′-(2,2,2-trifluoro-1-hydroxy-ethyl)-biphenyl-3-sulfonyl]-thiophene-2-carboxamidine trifluoroacetate] | 6 to 23 nM
CSc1sc(C(=N)N)cc1S(=O)(=O)c1cccc(-c2cccc(C(=O)C(F)(F)F)c2)c1 [Example 29, 5-Methylsulfanyl-4-[3′-(2,2,2-trifluoro-acetyl)-biphenyl-3-sulfonyl]-thiophene-2-carboxamidine trifluoroacetate] | 6 to 23 nM
CSc1sc(C(=N)N)cc1S(=O)(=O)c1cccc(-c2cc3[nH]cnc3cc2C)c1 [Example 30, 4-[3-(6-Methyl-3H-benzoimidazol-5-yl)-benzenesulfonyl]-5-methylsulfanyl-thiophene-2-carboxamidine bis-trifluoroacetate] | 6 to 23 nM
CSc1sc(C(=N)N)cc1S(=O)(=O)c1cccc(-c2cccc(O)c2)c1 [Example 35, 4-(3′-Hydroxy-biphenyl-3-sulfonyl)-5-methylsulfanyl-thiophene-2-carboxamidine trifluoroacetate] | 6 to 23 nM
CSc1sc(C(=N)N)cc1S(=O)(=O)c1ccc2ccccc2c1 [Example 37, 5-Methylsulfanyl-4-(naphthalene-2-sulfonyl)-thiophene-2-carboxamidine triflouroacetate] | 6 to 23 nM
COc1ccc(-c2cccc(S(=O)(=O)c3cc(C(=N)N)sc3SC)c2)c(OC)c1 [Example 41, 4-(2′,4′-Dimethoxy-biphenyl-3-sulfonyl)-5-methylsulfanyl-thiophene-2-carboxamidine] | 6 to 23 nM

The next lines start with the values.

Ki | Structure (SMILES)
6 to 23 nM | CSc1sc(C(=N)N)cc1S(=O)(=O)c1cccc(-c2cccc(-c3ccccc3)c2O)c1 [Example 2]
6 to 23 nM | CSc1sc(C(=N)N)cc1S(=O)(=O)c1cccc(-c2cccc(C(=O)OC(C)C)c2C)c1 [Example 3, 3′-(5-Carbamimidoyl-2-methylsulfanyl-thiophene-3-sulfonyl)-2-methyl-biphenyl-3-carboxylic acid isopropyl ester trifluoroacetate]
6 to 23 nM | CSc1sc(C(=N)N)cc1S(=O)(=O)c1cccc(-c2cccc(C=O)c2C)c1 [Example 6, 4-(3′-formyl-2′-methyl-biphenyl-3-sulfonyl)-5-methylsulfanyl-thiophene-2-carboxamidine trifluoroacetate]
6 to 23 nM | CSc1sc(C(=N)N)cc1S(=O)(=O)c1cccc(-c2cc(CO)ccc2C)c1 [Example 7, 4-(5′-Hydroxymethyl-2′-methyl-biphenyl-3-sulfonyl)-5-methylsulfanyl-thiophene-2-carboxamidine trifluoroacetate]
6 to 23 nM | CSc1sc(C(=N)N)cc1S(=O)(=O)c1cccc(-c2cnccc2C)c1 [Example 9, 4-[3-(4-Methyl-pyridin-3-yl)-benzenesulfonyl]-5-methylsulfanyl-thiophene-2-carboxamidine trifluoroacetate]
6 to 23 nM | CSc1sc(C(=N)N)cc1S(=O)(=O)c1cccc(-c2cccnc2Cl)c1 [Example 10, 4-[3-(2-Chloro-pyridin-3-yl)-benzenesulfonyl]-5-methylsulfanyl-thiophene-2-carboxamidine; bis-trifluoroacetate]
6 to 23 nM and 23 nM | CSc1sc(C(=N)N)cc1S(=O)(=O)c1cccc(-c2ncccc2C)c1 [Example 11, 4-[3-(3-Methyl-pyridin-2-yl)-benzenesulfonyl]-5-methylsulfanyl-thiophene-2-carboxamidine bis-trifluoroacetate]
6 to 23 nM | Cc1ccccc1-c1cccc(S(=O)(=O)c2cc(C(=N)N)sc2Br)c1 [Example 24, 5-Bromo-4-(2′-methyl-biphenyl-3-sulfonyl)-thiophene-2-carboxamidine trifluoroacetate]
6 to 23 nM | CSc1sc(C(=N)N)cc1S(=O)(=O)c1cccc(-c2c(C)cccc2N)c1 [Example 25, 4-(2′-Amino-6′-methyl-biphenyl-3-sulfonyl)-5-methylsulfanyl-thiophene-2-carboxamidine trifluoroacetate]
6 to 23 nM | CSc1sc(C(=N)N)cc1S(=O)(=O)c1cccc(-c2ccccc2C(C)O)c1 (stereo not shown) [Example 32, 4-[2′-(1-Hydroxy-ethyl)-biphenyl-3-sulfonyl]-5-methylsulfanyl-thiophene-2-carboxamidine trifluoroacetate]
6 to 23 nM | CSc1sc(C(=N)N)cc1S(=O)(=O)c1cccc(-c2ccc(C(C)O)cc2)c1 (stereo not shown) [Example 33, 4-[4′-(1-Hydroxy-ethyl)-biphenyl-3-sulfonyl]-5-methylsulfanyl-thiophene-2-carboxamidine Trifluoroacetate]
6 to 23 nM | CSc1sc(C(=N)N)cc1S(=O)(=O)c1cccc(-c2ccccc2O)c1 [Example 34, 4-(2′-Hydroxy-biphenyl-3-sulfonyl)-5-methylsulfanyl-thiophene-2-carboxamidine trifluoroacetate]
